Laboratory results as given in patent US10016406B2, “Indazole inhibitors of the WNT signal pathway and therapeutic uses thereof” (Samumed, LLC, priority 2009, dated 2018).
pIC50: −log10 of the molar value.

system: Wnt; assay: Wnt reporter screening assay: SW480 cells stably transduced with SP5 promoter-firefly luciferase lentiviral construct; format: cell-based; details: Homo sapiens, SW480 colon cancer cells, 24 h after compound addition, normalized to DMSO, read-out: Wnt inhibition, IC50
Description: Another screening assay for Wnt activity is described as follows. Reporter cell lines can be generated by stably transducing cells of cancer cell lines (e.g., colon cancer) with a lentiviral construct that include a wnt-responsive promoter driving expression of the firefly luciferase gene.
Lentiviral constructs can be made in which the SP5 promoter, a promoter having eight TCF/LEF binding sites derived from the SP5 promoter, is linked upstream of the firefly luciferase gene. The lentiviral constructs can also include a hygromycin resistance gene as a selectable marker. The SP5 promoter construct can be used to transduce SW480 cells, a colon cancer cell line having a mutated APC gene that generates a truncated APC protein, leading to de-regulated accumulation of β-catenin.
Cultured SW480 cells bearing a reporter construct can be distributed at approximately 10,000 cells per well into 384 well multiwell plates. Compounds from a small molecule compound library can then be added to the wells in half-log dilutions using a three micromolar top concentration. A series of control wells for each cell type receive only buffer and compound solvent. Twenty-four hours after the addition of compound, reporter activity for luciferases can be assayed, for example, by addition of the BrightGlo luminescence reagent (Promega) and the Victor3 plate reader (Perkin Elmer). Readings can be normalized to DMSO only treated cells, and normalized activities can then be used in the IC50 calculations.

`CC(C)(C)CC(=O)Nc1cncc(-c2ccc3[nH]nc(-c4nc5c(-c6cccnc6)cncc5[nH]4)c3c2)c1` [Compound 18, 3,3-dimethyl-N-(5-(3-(7-(pyridin-3-yl)-3H-imidazo[4,5-c]pyridin-2-yl)-1H-indazol-5-yl)pyridin-3-yl)butanamide] and `CC(C)(C)C(=O)Nc1cncc(-c2ccc3[nH]nc(-c4nc5c(-c6cccnc6)cncc5[nH]4)c3c2)c1` [Compound 17, N-(5-(3-(7-(pyridin-3-yl)-3H-imidazo[4,5-c]pyridin-2-yl)-1H-indazol-5-yl)pyridin-3-yl)pivalamide] cannot be ordered by pIC50: 7.41 to 7.68 for the first, 7.30 to 7.49 for the second.

`CCCC(=O)Nc1cncc(-c2ccc3[nH]nc(-c4nc5c(-c6cccnc6)cncc5[nH]4)c3c2)c1` [Compound 20, N-(5-(3-(7-(pyridin-3-yl)-3H-imidazo[4,5-c]pyridin-2-yl)-1H-indazol-5-yl)pyridin-3-yl)butyramide] and `CCCCC(=O)Nc1cncc(-c2ccc3[nH]nc(-c4nc5c(-c6cccnc6)cncc5[nH]4)c3c2)c1` [Compound 23, N-(5-(3-(7-(pyridin-3-yl)-3H-imidazo[4,5-c]pyridin-2-yl)-1H-indazol-5-yl)pyridin-3-yl)pentanamide] cannot be ordered by pIC50: 7.20 for the first, 7.19 to 7.47 for the second.

`O=C(NC1CCNCC1)c1cncc(-c2ccc3[nH]nc(-c4nc5ccncc5[nH]4)c3c2)c1` [Compound 1, 5-(3-(3H-imidazo[4,5-c]pyridin-2-yl)-1H-indazol-5-yl)-N-(piperidin-4-yl)nicotinamide] and `O=C(NCC1CCCCC1)c1cncc(-c2ccc3[nH]nc(-c4nc5ccncc5[nH]4)c3c2)c1` [Compound 2, 5-(3-(3H-imidazo[4,5-c]pyridin-2-yl)-1H-indazol-5-yl)-N-(cyclohexylmethyl)nicotinamide] cannot be ordered by pIC50: less than 5.00 for the first, less than 5.00 for the second.

First: O=C(NCC1CC1)c1cncc(-c2ccc3[nH]nc(-c4nc5c(-c6cccnc6)cncc5[nH]4)c3c2)c1 [Compound 3, N-(cyclopropylmethyl)-5-(3-(7-(pyridin-3-yl)-3H-imidazo[4,5-c]pyridin-2-yl)-1H-indazol-5-yl)nicotinamide]
Second: O=C(Nc1cncc(-c2ccc3[nH]nc(-c4nc5c(-c6cccnc6)cncc5[nH]4)c3c2)c1)C1CC1 [Compound 12, N-(5-(3-(7-(pyridin-3-yl)-3H-imidazo[4,5-c]pyridin-2-yl)-1H-indazol-5-yl)pyridin-3-yl)cyclopropanecarboxamide]
The pIC50 of the first is lower: less than 5.00 for the first, 7.46 to 7.59 for the second. The second is the more potent here.

First: CCC(=O)Nc1cncc(-c2ccc3[nH]nc(-c4nc5c(-c6cccnc6)cncc5[nH]4)c3c2)c1 [Compound 4, N-(5-(3-(7-(pyridin-3-yl)-3H-imidazo[4,5-c]pyridin-2-yl)-1H-indazol-5-yl)pyridin-3-yl)propionamide]
Second: CC(C)CC(=O)Nc1cncc(-c2ccc3[nH]nc(-c4nc5c(-c6cccnc6)cncc5[nH]4)c3c2)c1 [Compound 15, 3-methyl-N-(5-(3-(7-(pyridin-3-yl)-3H-imidazo[4,5-c]pyridin-2-yl)-1H-indazol-5-yl)pyridin-3-yl)butanamide]
The pIC50 of the first is lower: 7.30 to 7.54 for the first, 8.25 for the second. The second is the more potent here.

Compared with `O=C(Nc1cncc(-c2ccc3[nH]nc(-c4nc5c(-c6cccnc6)cncc5[nH]4)c3c2)c1)C1CCCCC1` [Compound 19, N-(5-(3-(7-(pyridin-3-yl)-3H-imidazo[4,5-c]pyridin-2-yl)-1H-indazol-5-yl)pyridin-3-yl)cyclohexanecarboxamide], `O=C(Nc1cncc(-c2ccc3[nH]nc(-c4nc5c(-c6cccnc6)cncc5[nH]4)c3c2)c1)C1CCC1` [Compound 21, N-(5-(3-(7-(pyridin-3-yl)-3H-imidazo[4,5-c]pyridin-2-yl)-1H-indazol-5-yl)pyridin-3-yl)cyclobutanecarboxamide] is higher in pIC50: 6.69 to 7.07 for the first, 7.54 for the second. The second is the more potent here.

Compared with `CC(C)C(=O)Nc1cncc(-c2ccc3[nH]nc(-c4nc5c(-c6cccnc6)cncc5[nH]4)c3c2)c1` [Compound 11, N-(5-(3-(7-(pyridin-3-yl)-3H-imidazo[4,5-c]pyridin-2-yl)-1H-indazol-5-yl)pyridin-3-yl)isobutyramide], `O=C(Nc1cncc(-c2ccc3[nH]nc(-c4nc5c(-c6cccnc6)cncc5[nH]4)c3c2)c1)c1ccccc1` [Compound 16, N-(5-(3-(7-(pyridin-3-yl)-3H-imidazo[4,5-c]pyridin-2-yl)-1H-indazol-5-yl)pyridin-3-yl)benzamide] is lower in pIC50: 8.40 for the first, 5.93 to 6.42 for the second.
